Common to all, as to assay type: in vivo
In experiment [1] the test system is Colletotricum lagenarium. Kind of experiment: Cucumber Anthracnose (COLLLA), whole-plant fungicide test. The conditions noted are these: one-day protectant test; for pest or weed control at 200 ppm: foliar.
Experiment [2] has as its system Leptosphaeria nodorum. In words: Glume Blotch of Wheat (LEPTNO), whole-plant fungicide test. The conditions noted are these: Parastagonospora nodorum, read-out: LEPTNO percent control of disease; for pest or weed control at 200 ppm: foliar, 24 h, 200 ppm on foliage, one-day protectant test.
Experiment [3] concerns Septoria tritici. Kind of experiment: Speckled Leaf Blotch of Wheat (SEPTTR), whole-plant fungicide test. The conditions noted are these: Zymoseptoria tritici, read-out: SEPTTR percent control of disease; for pest or weed control at 100 ppm: 100 ppm (footnote a); for pest or weed control at 75 ppm: 75 ppm (footnote d).
The test system of experiment [4] is Erysiphe cichoracaerum. Kind of experiment: Cucumber Powdery Mildew (ERYSCI), whole-plant fungicide test. The conditions noted are these: 200 ppm on foliage, one-day protectant test; for pest or weed control at 200 ppm: Erysiphe, foliar, 24 h, read-out: ERYSCI percent control of disease.
The test system of experiment [5] is Phytophthora infestans. In words: whole plant or invertebrate. The conditions noted are these: for pest or weed control at 200 ppm: foliar, read-out: PHYTIN percent control of disease, 200 ppm on foliage, tomato, one-day protectant test.
The test system of experiment [6] is Magnaporthe grisea. Kind of experiment: whole plant or invertebrate. The conditions noted are these: for pest or weed control at 200 ppm: foliar, read-out: PYRIOR percent control of disease, 200 ppm on foliage, rice, one-day protectant test.
The subject of experiment [7] is Puccinia recondita tritici. In words: Leaf Rust of Wheat (PUCCRT), whole-plant fungicide test. The conditions noted are these: 200 ppm on foliage, one-day protectant test; for pest or weed control at 200 ppm: Puccinia recondita, foliar, 24 h, read-out: PUCCRT percent control of disease.
Experiment [8] deals with Cochliobolus sativus. Kind of experiment: Spot Blotch of Wheat (COCHSA), whole-plant fungicide test. The conditions noted are these: Bipolaris sorokiniana, foliar, 24 h, 200 ppm on foliage, one-day protectant test, read-out: COCHSA percent control of disease. On the procedure: The activity of the compounds as effective fungicides was determined by applying the compounds to plants and observing control of fungal disease. The compounds were formulated at 200 ppm in 10 vol. percent acetone plus 90 vol. percent Triton X water (deionized water 99.99 wt. percent+0.01 wt. percent Triton X100), giving a “formulated test compound.” In a few cases, compounds were formulated at 100, 75 or 8.3 ppm rather than 200 ppm in 10 vol. percent acetone plus 90 vol. percent Triton X water (deionized water 99.99 wt. percent+0.01 wt. percent Triton X100), giving a ‘formulated test compound’. The compounds were tested for ability to control plant diseases in a 1-day protectant test (1DP) or a 2-day curative test (2DC). Formulated test compounds were applied to plants using a turn table sprayer fitted with two opposing air atomization nozzles which delivered approximately 1500 L/ha of spray volume. Plants were inoculated with spores of the fungus the next day (1DP), then incubated in an environment conducive to disease development. In a few cases, the compounds were tested for ability to control plant disease in a two-day curative test. Plants were inoculated with spores of the fungus two days prior to compound application, and incubated in an environment conducive to disease development both before and after compound application (2DC). For all types of tests, disease severity was evaluated 4 to 28 days later, depending on the speed of disease development.
Each pot contained 3-8 seedlings. These plants were sprayed until wet with the formulated test compound. On the following day, the leaves were inoculated with an aqueous spore suspension of Cochliobolus sativus and the plants were kept in high humidity for one to two days to permit spores to germinate and infect the leaf. The plants were then transferred to a greenhouse until disease developed on untreated control plants.
The following table presents the activity of typical compounds of the present invention when evaluated in these experiments. The effectiveness of the test compounds in controlling disease was determined by assessing the severity of disease on treated plants, then converting the severity to percent control based on the level of disease on untreated, inoculated plants.
TABLE 4: Activity of compounds as fungicides. Data are the level at which the given disease was controlled when the given compound was applied to the foliage of the plant at 200 ppm. In a few cases (noted in the table) the compound was applied to the plant at 100, 75 or 8.3 ppm. The plant was inoculated with the fungus one day after treatment. In a few cases (noted in the table) the plant was inoculated with the fungus two days before treatment.

[9] abbreviates: Cucumis sativus, 24 h, 200 ppm on foliage, read-out: COLLLA percent control of disease.
[10] abbreviates: Phytophthora infestans, in Solanum lycopersicum, 24 h.
[11] abbreviates: Pyricularia oryzae, in Oryza sativa, 24 h.

Where two headings read alike, the source gives them in different places.

As for `FC(F)(F)COc1ccc(CCNc2ncnc3scc(Cl)c23)cn1` [Compound 5a], the pest or weed control at 200 ppm lay within 50 to 79% in experiment [1] (setting [9]); 80 to 100% in experiment [2]; 80 to 100% in experiment [4]; 80 to 100% in experiment [5] (setting [10]); 80 to 100% in experiment [6] (setting [11]); 80 to 100% in experiment [7]. Moreover, in experiment [3] (24 h, one-day protectant test), the pest or weed control at 100 ppm was 80 to 100%.

In the case of `CC(=O)COc1ccc(CCNc2ncnc3scc(Cl)c23)cc1` [Compound 6a], the pest or weed control at 200 ppm in experiment [1] (setting [9]) is 50 to 79%; in experiment [2] it was 50 to 79%; in experiment [4] it was 0 to 49%; in experiment [5] (setting [10]) it was 80 to 100%; in experiment [6] (setting [11]) it was 80 to 100%; in experiment [7], 80 to 100%. In experiment [3] (24 h, one-day protectant test), the pest or weed control at 75 ppm was 0 to 49%.

With `O=C(Oc1ccc(CCNc2ncnc3scc(Cl)c23)cc1)C1(F)C(F)(F)C(F)(F)C(F)(F)C(F)(F)C1(F)F` [Compound 9a, 1,2,2,3,3,4,4,5,5,6,6-undecafluoroclohexanecarboxylic Acid 4-[2-(5-chlorothieno[2,3-d]pyrimidin-4-ylamino)ethyl]phenyl Ester], the pest or weed control at 200 ppm in experiment [1] (setting [9]) lay within 0 to 49%; in experiment [2], 0 to 49%; in experiment [4], 0 to 49%; in experiment [5] (setting [10]), 0 to 49%; in experiment [6] (setting [11]), 80 to 100%; in experiment [7], 80 to 100%. In experiment [3] (24 h, one-day protectant test), the pest or weed control at 75 ppm is 80 to 100%.

As for `CC(C)(C)OC(=O)Nc1ccc(CCNc2ncnc3scc(Cl)c23)cc1` [Compound 10a, {4-[2-(5-chlorothieno[2,3-d]pyrimidin-4-ylamino)ethyl]phenyl}carbamic Acid t-butyl Ester], the pest or weed control at 200 ppm in experiment [1] (setting [9]), in experiment [2], in experiment [4] and in experiment [7] was 0 to 49% in each case. In addition, in experiment [3] (24 h, one-day protectant test), the pest or weed control at 75 ppm was 80 to 100%. Further, in experiment [6] (Pyricularia oryzae, in Oryza sativa, 24 h, read-out: PYRIOR percent control of disease, 8.3 ppm (footnote c), rice, one-day protectant test), the pest or weed control at 8.3 ppm lay within 80 to 100%.

Turning to `CC(Nc1ncnc2scc(Cl)c12)c1ccc(F)nc1` (stereo not shown) [Compound 40], the pest or weed control at 200 ppm in experiment [2] was in the range of 50 to 79%; in experiment [8], 50 to 79%; in experiment [7], 80 to 100%.

As for `CCOc1csc2ncnc(N[C@@H](C)c3ccc(OC)cc3)c12` [Compound 43], the pest or weed control at 200 ppm in experiment [1] (setting [9]) was in the range of 0 to 49%; in experiment [2], 0 to 49%; in experiment [5] (setting [10]) it was 0 to 49%; in experiment [8] it was 0 to 49%; in experiment [6] (setting [11]), 50 to 79%; in experiment [7] it was 50 to 79%.

Take `CCOc1csc2ncnc(NC(C)c3ccc(OC)nc3)c12` (stereo not shown) [Compound 46]: the pest or weed control at 200 ppm in experiment [1] (setting [9]) lay within 0 to 49%; in experiment [2], 50 to 79%; in experiment [4], 50 to 79%; in experiment [5] (setting [10]) it was 0 to 49%; in experiment [8] it was 0 to 49%; in experiment [6] (setting [11]) it was 80 to 100%. The pest or weed control at 200 ppm in experiment [7] is 80 to 100%.

For the compound `COc1ccc(C(C)Nc2ncnc3sc([N+](=O)[O-])cc23)cc1` (stereo not shown) [Compound 47, [1-(4-Methoxyphenyl)ethyl]-(6-nitrothieno[2,3-d]pyrimidin-4-yl)amine], the pest or weed control at 200 ppm in experiment [1] (setting [9]) fell in the range of 0 to 49%; in experiment [2] it was 50 to 79%; in experiment [4], 0 to 49%; in experiment [5] (setting [10]), 0 to 49%; in experiment [8] it was 0 to 49%; in experiment [6] (setting [11]), 80 to 100%. Also, the pest or weed control at 200 ppm in experiment [7] fell in the range of 80 to 100%.

With `COc1ccc(C(C)Nc2ncnc3sc(Br)cc23)cc1` (stereo not shown) [Compound 48, (6-Bromothieno[2,3-d]pyrimidin-4-yl)-[1-(4-methoxyphenyl)ethyl]amine], the pest or weed control at 200 ppm in experiment [1] (setting [9]) lay within 0 to 49%; in experiment [2], 0 to 49%; in experiment [4], 0 to 49%; in experiment [5] (setting [10]), 0 to 49%; in experiment [8], 80 to 100%; in experiment [6] (setting [11]) it was 0 to 49%. For the same compound, the pest or weed control at 200 ppm in experiment [7] fell in the range of 0 to 49%.

For the compound `COc1ccc(C(C)Nc2ncnc3scc(C#N)c23)cc1` (stereo not shown) [Compound 49, 5-Cyano-N-[1-(4-methoxyphenyl)ethyl]thieno[2,3-d]pyrimidin-4-amine], the pest or weed control at 200 ppm lay within 0 to 49% in experiment [1] (setting [9]); 0 to 49% in experiment [2]; 0 to 49% in experiment [5] (setting [10]); 50 to 79% in experiment [8]; 80 to 100% in experiment [6] (setting [11]); 80 to 100% in experiment [7].

`CCOC(=O)c1csc2ncnc(NC(C)c3ccc(OC)cc3)c12` (stereo not shown) [Compound 50, 5-Carboethoxy-N-[1-(4-methoxyphenyl)ethyl]thieno[2,3-d]pyrimidin-4-amine]: the pest or weed control at 200 ppm lay in the range of 0 to 49% in experiment [1] (setting [9]); 0 to 49% in experiment [2]; 0 to 49% in experiment [5] (setting [10]); 50 to 79% in experiment [8]; 0 to 49% in experiment [6] (setting [11]); 0 to 49% in experiment [7].

For the compound `OCC(Nc1ncnc2scc(Cl)c12)c1ccccc1` (stereo not shown) [Compound 69], the “COLLLA percent control of disease” value in experiment [1] (200 ppm on foliage) is recorded as “* (* is 0-49 percent control of disease)”. For the same compound, the pest or weed control at 100 ppm was 50 to 79% in experiment [2] (48 h, 100 ppm (footnote a), two-day curative test (footnote b)) and 50 to 79% in experiment [3] (48 h, two-day curative test (footnote b)). In experiment [4], the “ERYSCI percent control of disease” value is given as “* (* is 0-49 percent control of disease)”. In addition, in experiment [5] (200 ppm on foliage, tomato, one-day protectant test), the “PHYTIN percent control of disease” value is on record as “* (* is 0-49 percent control of disease)”. Moreover, the “PYRIOR percent control of disease” value in experiment [6] (200 ppm on foliage, rice, one-day protectant test) was “* (* is 0-49 percent control of disease)”. Further, the “PUCCRT percent control of disease” value in experiment [7] is reported as “* (* is 0-49 percent control of disease)”.

On to `CC(Nc1ncnc2scc(Cl)c12)c1ccc(C(C)(C)C)cc1` (stereo not shown) [Compound 91], for which the pest or weed control at 100 ppm in experiment [1] (Cucumis sativus, 24 h, 100 ppm (footnote a), read-out: COLLLA percent control of disease) was in the range of 50 to 79%; in experiment [5] (Phytophthora infestans, in Solanum lycopersicum, 24 h, read-out: PHYTIN percent control of disease, 100 ppm (footnote a), tomato, one-day protectant test), 50 to 79%. In addition, the pest or weed control at 200 ppm in experiment [2], in experiment [4], in experiment [6] (setting [11]) and in experiment [7] was 80 to 100% throughout.

Regarding `Clc1csc2ncnc(N3CCOCC3c3ccccc3)c12` (stereo not shown) [Compound 92], the pest or weed control at 200 ppm in experiment [1] (setting [9]) was in the range of 0 to 49%; in experiment [2], 0 to 49%; in experiment [4] it was 0 to 49%; in experiment [5] (setting [10]) it was 0 to 49%; in experiment [6] (setting [11]), 80 to 100%; in experiment [7], 0 to 49%.

As for `Clc1csc2ncnc(N3CCCCC3c3ccccc3)c12` (stereo not shown) [Compound 93], the pest or weed control at 200 ppm lay within 0 to 49% in experiment [1] (setting [9]); 0 to 49% in experiment [2]; 0 to 49% in experiment [4]; 0 to 49% in experiment [5] (setting [10]); 80 to 100% in experiment [6] (setting [11]); 0 to 49% in experiment [7].

The values are drawn from US8008487B2, “Substituted thieno[2,3-D]pyrimidines as fungicides” (priority 2004, dated 2011).
